# Experimental data reported in article PMC8405639, “2-Carba-lysophosphatidic acid is a novel β-lysophosphatidic acid analogue with high potential for lysophosphatidic acid receptor activation and autotaxin inhibition” (Scientific Reports, 2021).
# What was measured:
# human recombinant ATX = target: T1, human recombinant ATX (Homo sapiens, UniProt Q13822); assay: Choline oxidase assay of LPC cleavage by ATX; assay type: biochemical; conditions: LPC 16:0 300 µM, ATX 50 nM, 2 h, 37 °C, various concentrations
# T1 construct: purchased Cayman Chemical
# Protocol: (a) Concentration–response curves for the inhibition of ATX activity as measured by the […] of the substrate lysophosphatidylcholine (LPC) using choline oxidase and peroxidase. LPC 16:0 (final concentration: 300 µM, above its critical micellar concentration [CMC]), human recombinant ATX (final concentration: 50 nM), and various concentrations of cPA analogues were used for incubation with 4-aminoantipyrine, TOOS (final concentration: 0.05% (w/v) each), choline oxidase and peroxidase (final concentration: 10 U/mL each) in the ATX assay buffer. […] Inhibition was calculated as percentage (%) of reduction in absorbance compared with absorbance in the vehicle control (without cPA analogues) after subtraction of the value measured at time 0. Data are represented as mean ± standard deviation (n = 3–4 samples). (b) Inhibition of ATX activity measured by lysophosphatidic acid (LPA 16:0) production via liquid chromatography coupled to triple quadrupole mass spectrometry (LC-QqQ). The substrate LPC 16:0 (final concentration: 300 µM) was incubated with human recombinant ATX (final concentration: 50 nM) and cPA analogues (final concentration: 10 μM) for 2 h at 37 °C. The ATX product, LPA 16:0, was quantified by LC-QqQ. Inhibition was calculated as percentage (%) of reduction in LPA production compared with LPA production in the vehicle control (without cPA analogues). Data are represented as mean ± standard deviation (n = 5–6 samples).
# Human recombinant ATX (50 nM final concentration, 5 µL in ATX assay buffer: 50 mM Tris, 140 mM NaCl, 5 mM KCl, 1 mM CaCl2, 1 mM MgCl2, pH 8.0) and cPA analogues (5 µL each in ATX assay buffer) at various concentrations were added in a 96-well plate and mixed with 90 µL of LPC 16:0 (final concentration: 300 µM) as substrate, 4-aminoantipyrine, TOOS (final concentration: 0.05% w/v each), choline oxidase and peroxidase (final concentration: 10 units/mL each) in ATX assay buffer. […] Inhibition was calculated as a percentage (%) of reduction in absorbance compared to absorbance in the vehicle control (without cPA analogues) after subtraction of the value measured at time 0.
# hLPA3 = target: T2, hLPA3 (Homo sapiens, UniProt Q9UBY5); assay: TGFα-shedding assay, LPA3; assay type: cell-based; conditions: 293A cells, AP-TGFα release; for EC50: 1 h; for Emax: read-out: Emax ± SEM hLPA3 (converted)
# T2 construct: expressed in transfected cells; host or cells: 293A cells
# T2 sequence (Q9UBY5 1-353): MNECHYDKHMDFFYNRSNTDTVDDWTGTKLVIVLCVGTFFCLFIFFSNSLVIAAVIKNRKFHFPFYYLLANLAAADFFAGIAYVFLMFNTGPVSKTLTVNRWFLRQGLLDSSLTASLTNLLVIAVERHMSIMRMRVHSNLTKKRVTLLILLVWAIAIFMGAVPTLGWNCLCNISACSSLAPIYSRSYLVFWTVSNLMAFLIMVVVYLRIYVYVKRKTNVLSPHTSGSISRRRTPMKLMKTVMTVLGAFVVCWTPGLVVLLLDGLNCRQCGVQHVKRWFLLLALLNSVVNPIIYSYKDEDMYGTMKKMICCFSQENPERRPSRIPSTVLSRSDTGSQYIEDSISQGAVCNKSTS
# Protocol: (§1) 293A cells expressing LPA receptors were stimulated with the indicated concentration of LPA, 2carbaLPA, and cPA analogues. Receptor-specific alkaline phosphatase-tagged transforming growth factor-α release was calculated by subtracting the responses in the empty vector-transfected cells from those in the receptor-expressing cells. Data are represented as standard error of the mean of three independent replicates.
# (§2) 293A cells (Life Technologies, Tokyo, Japan) were cultured in DMEM (Nissui Pharmaceutical, Tokyo, Japan) supplemented with 10% foetal calf serum (Gibco, Waltham, MA, USA) in an incubator at 37 °C and 5% CO2. This assay was conducted according to a modified version of a method described previously. […] The cells were co-transfected with vectors-expressing human LPA1–6, alkaline phosphatase-tagged TGFα (AP-TGFα). As negative controls, cells transfected with an empty vector instead of the receptor-expressing vector were used. After 24 h, the cells were resuspended in Hank’s balanced salt solution (HBSS), seeded in 96-well plates, and stimulated with cPA analogues administered at tenfold concentration of the final concentration. The cPA analogues were diluted with HBSS, 0.01% protease and fatty acid-free BSA (SERVA Electrophoresis GmbH, Heidelberg, Germany). Cells for LPA4, LPA5, and LPA6 analysis were treated with Ki16425 (final concentration: 10 μM), 5 min before treatment with the cPA analogues. After incubation for 1 h at 37 °C, 80 µL of the supernatant was transferred to fresh 96-well plates. An equal volume of 1 mM p-NPP solution [120 mM Tris–HCl (pH 9.5), 40 mM NaCl, and 10 mM MgCl2] was added to both the supernatant and the cells. Alkaline phosphatase activity was calculated by measuring absorbance at 405 nm using the Cytation 3 plate reader (BioTek, Winooski, VT, USA).
# hLPA2 = target: T3, hLPA2 (Homo sapiens, UniProt Q9HBW0); assay: TGFα-shedding assay, LPA2; assay type: cell-based; conditions: 293A cells, AP-TGFα release; for EC50: 1 h; for Emax: read-out: Emax ± SEM hLPA2 (converted)
# T3 construct: expressed in transfected cells; host or cells: 293A cells
# T3 sequence (Q9HBW0 whole entry): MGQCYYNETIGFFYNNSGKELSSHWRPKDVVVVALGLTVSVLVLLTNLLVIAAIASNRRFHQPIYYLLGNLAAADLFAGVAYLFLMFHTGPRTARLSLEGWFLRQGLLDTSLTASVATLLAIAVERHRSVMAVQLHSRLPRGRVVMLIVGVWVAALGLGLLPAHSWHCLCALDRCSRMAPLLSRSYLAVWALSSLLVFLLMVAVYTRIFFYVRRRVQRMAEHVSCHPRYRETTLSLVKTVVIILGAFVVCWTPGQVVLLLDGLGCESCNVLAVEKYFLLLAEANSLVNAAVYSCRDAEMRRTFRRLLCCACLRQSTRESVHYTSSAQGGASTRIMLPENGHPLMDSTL
# Protocol: as §1, §2
# [1] = design: method as in PMID 32298781; conditions: acidic conditions ref 16; cited from earlier work
# LPA4 = conditions: Ca2+ mobilization, RH7777 and CHO cells, less than 2 min incubation ref 17; cited from earlier work
# LPA3 = conditions: Ca2+ mobilization, RH7777 and CHO cells, less than 2 min incubation ref 17; cited from earlier work
Compound,EC50 (hLPA3),Emax (hLPA3),EC50 (hLPA2),Emax (hLPA2),EC50 (hLPA2; bound),Inhibition of lysoPLD activity of ATX (choline oxidase assay) (human recombinant ATX),Degradation under acidic conditions [1],"Activity relative to LPA (times weaker), LPA4 (LPA4)","Activity relative to LPA (times weaker), LPA3 (LPA3)"
"CCCCCCCC/C=C\CCCCCCCC(=O)OC[C@@H]1CCP(=O)(O)O1 [3ccPA 18:1, 3-carba-cyclic phosphatidic acid]",,37.4%,2.6 µM,53.2%,,"lower inhibitory activity than the other analogues, except for LPA and cPA",,,
"CCCCCCCC/C=C\CCCCCCCC(=O)OC[C@@H]1COP(=O)(O)O1 [cPA 18:1, 1-Oleoyl-cPA]",0.439 µM,16.8%,1.07 µM,35.9%,,significantly lower inhibitory activity,,,

# Continued by falling EC50 (hLPA3), values first:
EC50 (hLPA3),Emax (hLPA3),EC50 (hLPA2),Emax (hLPA2),EC50 (hLPA2; bound),Compound,Inhibition of lysoPLD activity of ATX (choline oxidase assay) (human recombinant ATX),Degradation under acidic conditions [1],"Activity relative to LPA (times weaker), LPA4 (LPA4)","Activity relative to LPA (times weaker), LPA3 (LPA3)"
0.286 µM,30.8%,,,> 3 µM,"CCCCCCCC/C=C\CCCCCCCC(=O)OCC1COP(=O)(O)C1 (centres unmarked) [2ccPA 18:1, 2-carba-cyclic phosphatidic acid]",inhibited the lysoPLD activity of ATX in a dose-dependent manner,degraded under acidic conditions,,
0.0116 µM,42.7%,0.256 µM,35.8%,,"CCCCCCCC/C=C\CCCCCCCC(=O)OCC(CO)CP(=O)(O)O (centres unmarked) [2carbaLPA 18:1, 2-carba-lysophosphatidic acid]",inhibited the lysoPLD activity of ATX in a dose-dependent manner,,,
0.0056 µM,44.3%,0.0283 µM,30.7%,,"CCCCCCCC/C=C\CCCCCCCC(=O)OC[C@@H](O)CCP(=O)(O)O [3carba LPA 18:1, 3-carba-lysophosphatidic acid]",inhibited the lysoPLD activity of ATX in a dose-dependent manner,,more than 10 times,more than 10 times
